What was measured:
5-HT2 receptor = assay: DOI-induced head twitch model in mice; type: in vivo; conditions: compound orally 0.5 hr before DOI
[1] = Clinical studies in patients with acute exacerbated schizophrenia; type: in vivo, human; conditions: 60 mg P.O. once daily up to 28 days
From the text: Social avoidance can be a critical and debilitating symptom in patients suffering from anxiety disorders, especially social anxiety disorder, as well as in patients suffering from traumatic anxiety disorders. Social avoidance is often one of the key determinants of whether a person with a severe anxiety disorder is capable of maintaining familial relationships or employment relationships. […] Negative symptoms of schizophrenia can be divided into two categories: emotional experience (e.g., emotional withdrawal, passive social withdrawal, active social avoidance) and emotional expression (e.g., blunted effect, poor rapport, lack of spontaneity, and motor retardation). […] These are the symptoms that are most highly correlated with interpersonal functioning.

[2] = system: NMDA-induced currents in rat mPFC; assay: NMDA-induced currents in rat mPFC slices, whole-cell patch clamp; type: cell-based
mTORC1 signaling pathway = assay: Phosphorylation of mTOR pathway proteins in rat PFC; type: in vivo; conditions: for mTOR phosphorylation (Serine 2448) / increase in phosphorylation of AKT at thr308 / p70s6K phosphorylation (Threonine 389): rat PFC, 30 mg/kg ketamine or 3 mg/kg Formula A i.p.; for increase in phosphorylation of AKT at thr308: both 1 hour and 24 hours post-administration; for p70s6K phosphorylation (Threonine 389): over 24 hours
[3] = system: AMPA-induced currents in rat mPFC; assay: AMPA-induced currents in rat mPFC slices, whole-cell patch clamp; type: cell-based
Protocol: Combined administration of the antipsychotic, olanzapine, and the SSRI, fluoxetine, similarly induces rapid antidepressant activity in humans and animals (Tohen et al., 2010); likewise, combined application of olanzapine and fluoxetine is required to induce AMPA receptor currents in vitro.
In contrast, the antipsychotic drug olanzapine, is found to enhance AMPA-induced currents only in the presence of the SSRI fluoxetine. 3 nM olanzapine alone results in about 100% of the AMPA-induced current of the control, while 100 nM fluoxetine results in about 90% of the AMPA-induced current of the control. However, the combination of 3 nM olanzapine and 100 nM fluoxetine is found to synergistically result in almost 150% of the AMPA-induced current of control. When SCH 23390 (1 μM) is combined with the olanzapine and fluoxetine, however, the AMPA-induced current returns to approximately 100% of the control level.

Mu opiate receptor = Mu opiate receptor (Homo sapiens (Human), UniProt P35372); assay: biochemical
[4] = 40-minute infusion, total dose 0.5 mg/kg; after 24 hours; cited from earlier work

SMILES: O=C1CN2c3c(cccc3[C@@H]3CN(CCCOc4ccc(F)cc4)CC[C@@H]32)N1 [Example 1, (6bR,10aS)-8-(3-(4-fluorophenoxy)propyl)-6b,7,8,9,10,10a-hexahydro-1H-pyrido[3′,4′:4,5]pyrrolo[1,2,3-de]quinoxalin-2(3H)-one]
- EC50 for reducing DOI-induced head twitches (5-HT2 receptor): 0.44 mg/kg, p.o.

SMILES: CN1CCN2c3c(cccc31)[C@@H]1CN(CCCC(=O)c3ccc(F)cc3)CC[C@@H]12 [Formula A, lumateperone]
- symptoms of emotional experience compared to placebo [1]: significant and unexpected improvement
- NMDA-induced currents compared to control ([2]; 30 nM): ~150%
- NMDA-induced currents compared to control ([2]; Formula A 30 nM combined with SCH 23390 (1 μM)): about 90 % of control
- activation of the mTORC1 signaling pathway in mPFC (mTORC1 signaling pathway; adult rats, 1 to 8 mg/kg i.p., 60 min, 90 min or 24 hours): rapidly activates the mTORC1 signaling pathway
- mTOR phosphorylation (Serine 2448) (mTORC1 signaling pathway): Neither ketamine nor the Compound of Formula A results in a change
- increase in phosphorylation of AKT at thr308 (mTORC1 signaling pathway): ~50%
- p70s6K phosphorylation (Threonine 389) (mTORC1 signaling pathway): progressively increases
- AMPA-induced currents compared to control ([3]; Formula A 30 nM, alone and with SCH 23390 (1 μM), rat mPFC): Substantially the same results
- Ki (Mu opiate receptor): > 10 µM

SMILES: CNCCC(Oc1ccc(C(F)(F)F)cc1)c1ccccc1 (stereo not shown) [fluoxetine]
- AMPA-induced current of the control ([3]; 100 nM fluoxetine): about 90%

SMILES: CNC1(c2ccccc2Cl)CCCCC1=O (stereo not shown) [ketamine]
- ratings on the Hamilton Depression Rating Scale (HDRS) compared to placebo [4]: significantly improved ratings
- mTOR phosphorylation (Serine 2448) (mTORC1 signaling pathway): Neither ketamine nor the Compound of Formula A results in a change
- increase in phosphorylation of AKT at thr308 (mTORC1 signaling pathway): ~50%
- p70s6K phosphorylation (Threonine 389) (mTORC1 signaling pathway): transiently increase

SMILES: Cc1cc2c(s1)Nc1ccccc1N=C2N1CCN(C)CC1 [olanzapine]
- AMPA-induced current of the control ([3]; 3 nM olanzapine alone): about 100%

Reference: patent US12023331B2 (priority 2018, dated 2024)
